For 16 molecules, Ki and IC50 results are on record in patent US9732088B2, “C2-carbocyclic iminothiazine dioxides as BACE inhibitors, compositions, and their use” (Merck Sharp & Dohme Corp., priority 2014, dated 2017).

By Ki is commonly meant a dissociation constant, usually derived from enzyme kinetics or from competition with a known ligand. For orientation: IC50 means the concentration that inhibits the measured activity by half. A lower IC50 goes with higher potency.

Test [1] has as its target purified human autoBACE-2 (Homo sapiens (Human), UniProt Q9Y5Z0). Nature of the test: BACE-2 Assay (BACE-HTRF assay). Type of test: biochemical. Conditions: Assay 2; Ki calculated from IC50 by Cheng-Prusoff; read-out: BACE2 Ki. How it is done:
The compounds of the invention were determined to be potent inhibitors of BACE-2 using the following assay. Inhibitor IC50s at purified human autoBACE-2 are determined in a time-resolved endpoint proteolysis assay that measures hydrolysis of the QSY7-[…]-Eu-amide FRET peptide substrate (BACE-HTRF assay). BACE-mediated hydrolysis of this peptide results in an increase in relative fluorescence (RFU) at 620 nm after excitation with 320 nm light Inhibitor compounds, prepared at 3× the desired final concentration in 1×BACE assay buffer (20 mM sodium acetate pH 5.0, 10% glycerol, 0.1% Brij-35) supplemented with 7.5% DMSO are pre-incubated with an equal volume of autoBACE-2 enzyme diluted in 1×BACE assay buffer (final enzyme concentration 1 nM) in black 384-well NUNC plates for 30 minutes at 30° C. […] DMSO is present at […] final concentration in the assay. Following laser excitation of sample wells at 320 nm, the fluorescence signal at 620 nm is collected for 400 ms following a 50 μs delay on a RUBYstar HTRF plate reader (BMG Labtechnologies). Raw RFU data is normalized to maximum (1.0 nM BACE/DMSO) and minimum (no enzyme/DMSO) RFU values. IC50 values are determined by nonlinear regression analysis (sigmoidal dose response, variable slope) of percent inhibition data with minimum and maximum values set to 0 and 100 percent respectively. Similar IC50s are obtained when using raw RFU data. The Ki values are calculated from the IC50 using the Cheng-Prusoff equation.

Test [2] has as its target BACE-1 (Homo sapiens (Human), UniProt P56817). Nature of the test: BACE-1 Cellular Assay (Aβ in HEK293-APPswe/lon cells). Conditions: 4 hours. It is filed as cell-based. How it is done:
Assay 3: BACE-1 Cellular Assay
Certain compounds of the invention, identified in the tables herein, were determined to be potent inhibitors of BACE-1 in the following cellular assay. HEK293 cells are obtained from the American Type Culture Collection (ATCC) and stably transfected with the human amyloid precursor protein cDNA containing the FAD Swedish (enhances β-secretase processing) and London (enhances Aβ42 cleavage) mutations. A HEK293 stable clone with Aβ expression (HEK293-APP^swe/lon) is identified and maintained at 37° C., 5% CO2 in the ATCC-recommended growth media supplemented with hygromycin. […] Aβ40 or Aβ42 are measured in 15 μl of media using a mesoscale based ELISA assay. Full length Aβ40 and Aβ42 peptides are captured with the N-terminal specific biotinylated-WO2 monoclonal antibody and detected using either the ruthenylated Aβ40 C-terminal specific monoclonal antibody, G2-10 or the ruthenylated Aβ42 C-terminal specific monoclonal antibody G2-11 respectively. Raw electrochemiluminescnce values are measured using a Mesoscale Sector Imager plate reader and are plotted as a function of compound concentration. IC50 values are interpolated from the data using nonlinear regression analysis (Sigmoidal dose response fit with variable slope) of the data using GraphPad Prism software.

Test [3] deals with purified human Cathepsin-D (Homo sapiens (Human), UniProt P07339). As to the kind of experiment: Cathepsin-D Assay (time-resolved FRET).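 Further: Europium-labelled peptide substrate with QSY7 quencher, cleavage read as 620 nm fluorescence after 30 min preincubation then 30 min reaction at 30 °C, pH 5.0, inhibition lowers signal.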 Type of test: biochemical. Particulars: Assay 4; Ki calculated from IC50 by Cheng-Prusoff.
Chain of purified human Cathepsin-D (P07339 65-412): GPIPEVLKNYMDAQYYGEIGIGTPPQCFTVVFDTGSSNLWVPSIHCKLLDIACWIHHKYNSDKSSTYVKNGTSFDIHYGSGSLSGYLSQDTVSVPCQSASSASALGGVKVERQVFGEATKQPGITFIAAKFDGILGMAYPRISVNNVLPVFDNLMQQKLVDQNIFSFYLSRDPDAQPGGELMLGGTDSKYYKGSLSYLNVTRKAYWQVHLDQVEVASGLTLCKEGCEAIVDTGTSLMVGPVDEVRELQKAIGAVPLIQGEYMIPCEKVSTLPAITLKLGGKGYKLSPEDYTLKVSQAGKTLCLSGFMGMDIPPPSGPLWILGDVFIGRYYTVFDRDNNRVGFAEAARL
In test [4] the target is soluble human BACE-1 catalytic domain (Homo sapiens (Human), UniProt P56817). As to the kind of experiment: BACE-1 Ki Assay (BACE-1 HTRF FRET Assay). Conditions: Assay 1; Ki calculated from IC50 by Cheng-Prusoff. It is filed as biochemical. How it is done:
Assay 1: BACE-1 Ki Assay (BACE-1 HTRF FRET Assay)
The compounds of the invention were determined to be potent inhibitors of BACE-1 using the following assay.
The following reagents were used in this assay. Na^+-Acetate pH 5.0; 1% Brij-35; Glycerol; Dimethyl Sulfoxide (DMSO); Recombinant human soluble BACE-1 catalytic domain (>95% pure); APP Swedish mutant peptide substrate (QSY7-APP^swe-Eu): QSY7-[…]-Europium-amide.
A homogeneous time-resolved FRET assay can be used to determine IC50 values for inhibitors of the soluble human BACE-1 catalytic domain. This assay monitors the increase of 620 nm fluorescence that resulted from BACE-1 cleavage of an APPswedish APP^swe mutant peptide FRET substrate (QSY7-[…]-Europium-amide). This substrate contains an N-terminal QSY7 moiety that serves as a quencher of the C-terminal Europium fluorophore (620 nm Em). In the absence of enzyme activity, 620 nm fluorescence is low in the assay and increased linearly over 3 hours in the presence of uninhibited BACE-1 enzyme. Inhibition of BACE-1 cleavage of the QSY7-APP^swe-Eu substrate by inhibitors is manifested as a suppression of 620 nm fluorescence.
Varying concentrations of inhibitors at 3× the final desired concentration in a volume of […] are preincubated with purified human BACE-1 catalytic domain (3 nM in 10 μl) for 30 minutes at 30° C. in reaction buffer containing 20 mM Na-Acetate pH 5.0, 10% glycerol, 0.1% Brij-35 and 7.5% DSMO. Reactions are initiated by addition of 10 μl of 600 nM QSY7-APP^swe-Eu substrate (200 nM final) to give a final reaction volume of 30 μl in a 384 well Nunc HTRF plate. The reactions are incubated at 30° C. for 1.5 hours. The 620 nm fluorescence is then read on a Rubystar HTRF plate reader (BMG Labtechnologies) using a […] delay followed by a 400 millisecond acquisition time window. Inhibitor IC50 values are derived from non-linear regression analysis of concentration response curves. Ki values are then calculated from IC50 values using the Cheng-Prusoff equation using a previously determined […] of 8 μM for the QSY7-APP^swe-Eu substrate at BACE-1. The example compounds of the invention were measured in this assay.

Chain of purified human autoBACE-2 (Q9Y5Z0 63-466): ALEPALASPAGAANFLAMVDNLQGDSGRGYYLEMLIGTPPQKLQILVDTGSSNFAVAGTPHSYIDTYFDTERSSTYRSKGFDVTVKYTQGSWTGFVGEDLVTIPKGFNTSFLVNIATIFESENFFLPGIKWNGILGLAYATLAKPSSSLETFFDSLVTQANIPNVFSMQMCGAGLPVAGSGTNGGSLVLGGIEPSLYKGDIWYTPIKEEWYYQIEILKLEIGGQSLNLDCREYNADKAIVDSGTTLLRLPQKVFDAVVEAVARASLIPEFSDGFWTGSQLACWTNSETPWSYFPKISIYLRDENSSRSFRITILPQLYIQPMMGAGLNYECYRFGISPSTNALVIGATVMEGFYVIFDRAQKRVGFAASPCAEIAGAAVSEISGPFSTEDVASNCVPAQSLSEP
Chain of BACE-1 (P56817 46-501): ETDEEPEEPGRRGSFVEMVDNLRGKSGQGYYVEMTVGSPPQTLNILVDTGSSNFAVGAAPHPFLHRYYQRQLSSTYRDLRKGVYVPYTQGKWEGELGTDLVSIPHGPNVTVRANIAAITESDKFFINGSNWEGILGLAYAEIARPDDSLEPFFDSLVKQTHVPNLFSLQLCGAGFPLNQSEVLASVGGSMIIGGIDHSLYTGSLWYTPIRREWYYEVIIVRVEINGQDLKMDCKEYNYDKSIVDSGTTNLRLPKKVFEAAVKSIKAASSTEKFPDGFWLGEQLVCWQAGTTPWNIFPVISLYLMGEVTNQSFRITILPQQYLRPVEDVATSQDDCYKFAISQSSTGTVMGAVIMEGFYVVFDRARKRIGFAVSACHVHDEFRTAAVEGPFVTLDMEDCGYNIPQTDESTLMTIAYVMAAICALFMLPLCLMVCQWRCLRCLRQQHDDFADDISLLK
Chain of soluble human BACE-1 catalytic domain (P56817 75-416): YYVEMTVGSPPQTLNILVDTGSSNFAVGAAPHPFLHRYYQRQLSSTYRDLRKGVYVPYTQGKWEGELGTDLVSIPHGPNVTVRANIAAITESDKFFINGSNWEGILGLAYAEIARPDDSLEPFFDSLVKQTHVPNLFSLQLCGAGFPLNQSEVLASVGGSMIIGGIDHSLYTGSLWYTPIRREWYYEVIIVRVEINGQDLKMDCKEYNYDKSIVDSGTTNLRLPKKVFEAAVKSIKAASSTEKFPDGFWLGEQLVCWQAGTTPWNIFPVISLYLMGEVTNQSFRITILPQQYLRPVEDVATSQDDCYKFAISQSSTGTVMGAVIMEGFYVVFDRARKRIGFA

On to `C[C@@]1(c2cc(Nc3ncnc4cc(Br)cnc34)ccc2F)CS(=O)(=O)[C@@](C)(C2CC2)C(N)=N1` [Example 15, 7-bromo-N-{3-[(3R,6S)-6-cyclopropyl-5-imino-3,6-dimethyl-1,1-dioxidothiomorpholin-3-yl]-4-fluorophenyl}pyrido[3,2-d]pyrimidin-4-amine], for which the Ki in test [1] is 0.73 nM; in test [3], 321 nM; in test [4], 1.8 nM. In addition, the midpoint of inhibition in test [2], the IC50, lay at 3.4 nM.

For the molecule `COc1cnc2c(Nc3cc([C@]4(C)CS(=O)(=O)[C@@](C)(C5CC5)C(N)=N4)c(F)cn3)ccnc2c1` [Example 21, (2S,5R)-2-cyclopropyl-5-(5-fluoro-2-((7-methoxy-1,5-naphthyridin-4-yl)amino)pyridin-4-yl)-3-imino-2,5-dimethylthiomorpholine 1,1-dioxide], the figures for the Ki in test [1] and in test [4] were 1.9 nM and 5.3 nM, respectively.

For `CC#CCOc1cnc2c(Nc3cnc(F)c([C@]4(C)CS(=O)(=O)[C@@](CF)(C5CC5)C(N)=N4)c3)nccc2c1` [Example 11, 3-(but-2-yn-1-yloxy)-N-{5-[(3R,6S)-6-cyclopropyl-6-(fluoromethyl)-5-imino-3-methyl-1,1-dioxidothiomorpholin-3-yl]-6-fluoropyridin-3-yl}-1,7-naphthyridin-8-amine], the Ki in test [1] is 7.5 nM; in test [3] it was 857 nM; in test [4], 0.91 nM. Also, the half-maximal inhibitory concentration (IC50) in test [2] came to 4.1 nM.

Consider `COc1cnc2c(Nc3ccc(F)c([C@]4(C)CS(=O)(=O)[C@@](C)(C5CC5)C(N)=N4)c3)ccnc2n1` [Example 37, (3R,6S)-5-amino-6-cyclopropyl-3-(2-fluoro-5-((3-methoxypyrido[2,3-b]pyrazin-8-yl)amino)phenyl)-3,6-dimethyl-3,6-dihydro-2H-1,4-thiazine 1,1-dioxide], for which the midpoint of inhibition in test [2], the IC50, lay at 23 nM.

For the molecule `CC1(C)C(=N)N[C@](C)(c2nc(Nc3cccc(Cl)c3F)ccc2F)CS1(=O)=O` [WO′426 Ex. 30, reference compound], the inhibitory constant (Ki) was 862 nM in test [1] and 3200 nM in test [4].

For the molecule `COc1cnc2c(Nc3cnc(F)c([C@]4(C)CS(=O)(=O)[C@@](C)(C5CC5)C(N)=N4)c3)nccc2c1` [Example 32, (3R,6S)-5-amino-6-cyclopropyl-3-(2-fluoro-5-((3-methoxy-1,7-naphthyridin-8-yl)amino)pyridin-3-yl)-3,6-dimethyl-3,6-dihydro-2H-1,4-thiazine 1,1-dioxide], the inhibition constant Ki was 2.6 nM in test [1], 650 nM in test [3] and 6.9 nM in test [4]. Further, the half-maximal inhibitory concentration (IC50) in test [2] was determined as 24 nM.

`COc1ccccc1Nc1ccc(F)c([C@]2(C)CS(=O)(=O)C(C)(C)C(=N)N2)n1` [WO′426 Ex. 30a, reference compound]: the Ki in test [1] is 517 nM; in test [4], 5280 nM.

As for `CC#CCOc1cnc2c(Nc3cc([C@]4(C)CS(=O)(=O)[C@@](C)(C5CC5)C(N)=N4)c(F)cn3)nccc2c1` [Example 10, 3-(but-2-yn-1-yloxy)-N-{4-[(3R,6S)-6-cyclopropyl-5-imino-3,6-dimethyl-1,1-dioxidothiomorpholin-3-yl]-5-fluoropyridin-2-yl}-1,7-naphthyridin-8-amine], the Ki was 0.64 nM in test [1], more than 9400 nM in test [3] and 0.79 nM in test [4]. In addition, inhibition in test [2] was half-maximal at 0.25 nM (IC50).

`C[C@@]1(c2cc(Nc3ccnc4cc(F)cnc34)ncc2F)CS(=O)(=O)[C@@](C)(C2CC2)C(N)=N1` [Example 34, (3R,6S)-5-amino-6-cyclopropyl-3-(5-fluoro-2-((7-fluoro-1,5-naphthyridin-4-yl)amino)pyridin-4-yl)-3,6-dimethyl-3,6-dihydro-2H-1,4-thiazine 1,1-dioxide] returned a 50% inhibitory concentration (IC50) in test [2] of 32 nM.

As to `COc1cnc2c(Nc3cc([C@]4(C)CS(=O)(=O)[C@@](C)(C5CC5)C(N)=N4)c(F)cn3)ncnc2n1` [Example 23, (2S,5R)-2-cyclopropyl-5-(5-fluoro-2-((7-methoxypteridin-4-yl)amino)pyridin-4-yl)-3-imino-2,5-dimethylthiomorpholine 1,1-dioxide], the Ki is 129 nM in test [1], more than 9400 nM in test [3] and 271 nM in test [4].

As to `CC#CCOc1cnc2c(Nc3cc([C@]4(C)CS(=O)(=O)[C@@](C)(C5CC5)C(N)=N4)c(F)cn3)nccc2n1` [Example 28, (3R,6S)-5-amino-3-(2-((2-(but-2-yn-1-yloxy)pyrido[3,4-b]pyrazin-5-yl)amino)-5-fluoropyridin-4-yl)-6-cyclopropyl-3,6-dimethyl-3,6-dihydro-2H-1,4-thiazine 1,1-dioxide], 6.3 nM corresponded to half-maximal inhibition in test [2] (IC50).

With `CC#CCOc1cnc2c(Nc3cnc(F)c([C@]4(C)CS(=O)(=O)[C@@](C)(C5CC5)C(N)=N4)c3)nccc2c1` [Example 30, (3R,6S)-5-amino-3-(5-((3-(but-2-yn-1-yloxy)-1,7-naphthyridin-8-yl)amino)-2-fluoropyridin-3-yl)-6-cyclopropyl-3,6-dimethyl-3,6-dihydro-2H-1,4-thiazine 1,1-dioxide], in test [2], the IC50 came to 28 nM.

The molecule `C[C@@]1(c2cc(Nc3ccnc4cccnc34)ncc2F)CS(=O)(=O)[C@@](C)(C2CC2)C(N)=N1` [Example 31, (3R,6S)-3-(2-((1,5-naphthyridin-4-yl)amino)-5-fluoropyridin-4-yl)-5-amino-6-cyclopropyl-3,6-dimethyl-3,6-dihydro-2H-1,4-thiazine 1,1-dioxide] returned a concentration for half-maximal inhibition (IC50) in test [2] of 180 nM.

For the molecule `C[C@@]1(c2cc(Nc3ncnc4cc(C#N)cnc34)ncc2F)CS(=O)(=O)[C@@](C)(C2CC2)C(N)=N1` [Example 39, 4-((4-((3R,6S)-5-amino-6-cyclopropyl-3,6-dimethyl-1,1-dioxido-3,6-dihydro-2H-1,4-thiazin-3-yl)-5-fluoropyridin-2-yl)amino)pyrido[3,2-d]pyrimidine-7-carbonitrile], the IC50 in test [2] came to 130 nM.

The molecule `CC#CCOc1cnc2c(Nc3cnc(F)c([C@]4(C)CS(=O)(=O)[C@@](C)(C5CC5)C(N)=N4)c3)nccc2n1` [Example 29, (3R,6S)-5-amino-3-(5-((2-(but-2-yn-1-yloxy)pyrido[3,4-b]pyrazin-5-yl)amino)-2-fluoropyridin-3-yl)-6-cyclopropyl-3,6-dimethyl-3,6-dihydro-2H-1,4-thiazine 1,1-dioxide] gave an IC50 in test [2] of 30 nM.

For the molecule `C[C@@]1(c2cc(Nc3nccc4cc(F)cnc34)ncc2F)CS(=O)(=O)[C@@](C)(C2CC2)C(N)=N1` [Example 26, (3R,6S)-5-amino-6-cyclopropyl-3-(5-fluoro-2-((3-fluoro-1,7-naphthyridin-8-yl)amino)pyridin-4-yl)-3,6-dimethyl-3,6-dihydro-2H-1,4-thiazine 1,1-dioxide], the IC50 in test [2] amounted to 250 nM.
